Reference: paper PMC10303687 (Protein Science : A Publication of the Protein Society, 2023)
Entries after “also recorded” stand apart in the source; their conditions may differ. Ends that are not written are not given here.

Columns and labels:
[1] = biological target: T1, MDM2 H. sapiens (SWIB domain) (Homo sapiens, UniProt Q00987); assay: Stopped-flow binding kinetics (kon, koff; KD = koff/kon); conditions: 10°C; for koff: pre-formed complex 1 μM:1 μM displaced by 10–20 μM dansylated human p53TAD, pH 7.4, SD of two or three replicates; for kon: pH 7.4, MDM2 H. sapiens 0.5–2 μM mixed with 1–10 μM p53TAD, kobs vs concentration, pH 7.4, curve fitting error
T1 construct: The reconstructed MDM2 variants used in the present study correspond to residues 17–125 of human MDM2; N-terminal fusion: NusA-TEV-His6-PreScission (pSY10) or His6-GST-PreScission (pETM33); made in house; host or cells: Escherichia coli BL21 (DE3) pLys or BL21 (DE3)
T1 sequence (Q00987 17-125): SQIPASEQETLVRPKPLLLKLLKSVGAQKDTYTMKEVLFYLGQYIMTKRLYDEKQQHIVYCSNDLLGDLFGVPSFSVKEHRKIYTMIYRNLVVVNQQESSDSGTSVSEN

[2] = biological target: T2, MDM2 D. rerio (SWIB domain) (Danio rerio, UniProt O42354); assay: as above; conditions: for kon: MDM2 D. rerio 0.5–2 μM mixed with 1–10 μM peptide, curve fitting error; for kon / koff: pH 7.4; for koff: complex 1 μM:1 μM displaced by 10–20 μM dansylated human p53TAD, SD of two or three replicates
T2 construct: N-terminal fusion: NusA-TEV-His6-PreScission (pSY10) or His6-GST-PreScission (pETM33); made in house; host or cells: Escherichia coli BL21 (DE3) pLys or BL21 (DE3)
T2 sequence (O42354 19-102 limits assumed): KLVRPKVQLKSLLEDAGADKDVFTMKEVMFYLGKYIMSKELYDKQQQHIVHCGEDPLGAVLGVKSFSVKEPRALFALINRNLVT

[3] = biological target: T2, MDM2 D. rerio (SWIB domain); assay: Fluorescence polarization displacement of FITC-labeled human p53TAD 15–26 (IC50 to KD/Ki); type: binding; conditions: FP displacement; low constant FITC-labeled p53TADHuman and MDM2 D. rerio, displaced by excess peptide; room temperature, pH 7.4; KD calculated from IC50; mean ± SEM
Method: FP can detect weak affinities (K D values in the high μM range), although the accuracy is lower than for the other methods. In FP experiments we observed direct binding using a FITC‐labeled p53TAD peptide and used unlabeled peptides containing the binding motif to displace the labeled one. FP experiments were performed at room temperature using the same buffer as kinetic experiments. […] The polarization was measured at excitation/emission wavelengths of 485/535 nm on a SpectraMax iD5 plate reader. […] Errors were calculated as standard error of mean (SEM) of calculated K D values for the displacer peptides resulting from independent fit of IC50 values for the replicate measurements. […]
Supplementary Excel File 2. […] IC50 values were determined as described in the materials section. The theory behind the conversion of IC50 values to Ki values (=KD) is described in Nikolovska-Coleska, et al., Development and optimization of a binding assay for the XIAP BIR3 domain using fluorescence polarization. […]

[4] = biological target: MDM2 T. adhaerens (SWIB domain); assay: as above; type: binding, Trichoplax adhaerens; conditions: FP displacement, FITC-labeled p53TAD H. sapiens 15–26 6 or 10 nM and MDM2 T. adhaerens 50 μM constant, dilution series of native p53TAD, room temperature, pH 7.4
Method: FP can detect weak affinities (K D values in the high μM range), although the accuracy is lower than for the other methods. In FP experiments we observed direct binding using a FITC‐labeled p53TAD peptide and used unlabeled peptides containing the binding motif to displace the labeled one. FP experiments were performed at room temperature using the same buffer as kinetic experiments. For saturation experiments the FITC labeled human peptide was held at a constant concentration of 6 or 10 nM and mixed with the 1:1 dilution series of different MDM2 proteins (the highest concentration of proteins were 89, 37, 50, 22, and 7.3 μM for T. adhaerens, M. trossulus, I. scapularis, L. camtschaticum and H. sapiens MDM2, respectively) in black, non‐binding surface, flat bottom 96‐well plates (Corning Life Sciences). The polarization was measured at excitation/emission wavelengths of 485/535 nm on a SpectraMax iD5 plate reader. […] The resulting displacement curve was fit to a sigmoidal dose‐response (variable slope) equation to obtain an IC50 value, which was in turn used to calculate K D values for the competing peptides as described previously(Nikolovska‐Coleska et al., [2004]) (Excel File 2 in Data S1). Errors were calculated as standard error of mean (SEM) of calculated K D values for the displacer peptides resulting from independent fit of IC50 values for the replicate measurements.
Supplementary Excel File 1. Sequences of constructs used in the experiments. The sequence and name for each interaction motif in p53TAD and MDM2 SWIB domain used in binding experiments in the study.
Supplementary Excel File 2. Calculation of Ki from IC50 values. IC50 values were determined as described in the materials section. The theory behind the conversion of IC50 values to Ki values (=KD) is described in Nikolovska-Coleska, et al., Development and optimization of a binding assay for the XIAP BIR3 domain using fluorescence polarization. […]
p53TAD. The posterior probability is shown for each amino acid for each position for the […]
Supplementary Text File 1. Fasta file for p53TAD. […]

How did the koff ([1]; MDM2 H. sapiens) turn out when “Ac-SQESFSDLWNLL [p53TADFishes/Tetrapods ^AltAll]” was run?
The koff was 0.52 ± 0.04 s⁻¹.

And the kon [1]?
Its kon is 2.73e+07 ± 700000 M⁻¹ s⁻¹.

Ac-SQETFEYLWNTL [p53TAD M. trossulus] was tested. Which “K D” value ([1]; MDM2 H. sapiens, KD = koff/kon, Trp fluorescence ex 280 nm/em 330 ± 25 nm, 20 mM sodium phosphate pH 7.4, 150 mM NaCl, 1 mM TCEP, propagated error, 12-mers show non-native high affinity) did it give?
The value was “high affinity”.

Ac-SQDTFSDLWNQL [p53TAD1R ^AltAll] was tested. Which koff ([1]; MDM2 H. sapiens) did it give?
The koff was 0.7 ± 0.04 s⁻¹.

What about the kon [1] of the same substance?
Its kon is 2.9e+07 ± 2e+06 M⁻¹ s⁻¹.

What does the source list for Ac-SQETFNHLWNML [p53TAD1R ^ML]?
koff ([1]; MDM2 H. sapiens): 1.37 ± 0.06 s⁻¹; kon [1]: 1.67e+07 ± 900000 M⁻¹ s⁻¹

“Ac-SQETFDFLWKSL [p53TADBilateria ^AltAll]” was tested. Which koff ([1]; MDM2 H. sapiens) did it give?
The koff was 2.6 ± 0.3 s⁻¹.

And the kon [1]?
The kon was 1.5e+07 ± 1e+06 M⁻¹ s⁻¹.

With Ac-EGPTFEHLWSTL [p73TAD D. rerio] as the substance, how does the Kd [2] read?
The Kd was 0.12 ± 0.01 µM.

What about the kon ([2]; stopped-flow, 10°C) of the same substance?
Its kon is 3.2e+07 ± 1e+06 M⁻¹ s⁻¹.

And the koff ([2]; MDM2 D. rerio, 10°C)?
The koff was 3.7 ± 0.06 s⁻¹.

Which Kd [3] does the source give for Ac-GQDVLNQLLEML [p63TAD D. rerio] here?
Its Kd is 130 ± 2 µM.

Which results are given for Ac-SQETFNHLWNTL [p53TADBilateria ^ML]?
koff ([1]; MDM2 H. sapiens): 11 ± 2 s⁻¹; kon [1]: 1.9e+07 ± 1e+06 M⁻¹ s⁻¹

For “Ac-SQETFSDLWNML [p53TADFishes/Tetrapods ^ML]”, which kon ([2]; stopped-flow, 10°C) is on record?
Its kon is 2.46e+07 ± 800000 M⁻¹ s⁻¹.

What about the koff ([2]; MDM2 D. rerio, 10°C) of the same substance?
Its koff is 2.3 ± 0.2 s⁻¹.

Which koff ([1]; MDM2 H. sapiens) does the source give for “Ac-SQETFSDLWNLL [p53TADReptiles/Mammals ^ML]” here?
The koff was 0.32 ± 0.04 s⁻¹.

What about the kon [1] of the same substance?
The kon was 4.2e+07 ± 2e+06 M⁻¹ s⁻¹.

“GPMGMSDEPTLSQLSFSQELSSSWQLMIDEITQGKFNTNEDEGTAIYSYSEQNPDDRYLMRPNEPQYISAGYPDGQVGQLPREFAVNQIPSPRTFSDNVSSSADKAREAYYGQAVNGVSAETSPPLKRDP [full-length p53TAD, residues 1–126 of T. adhaerens p53]” was tested. Which “K D” value [4] did it give?
The value was “did not show binding”.

What about the “K D” value ([4]; listed as full‐length p53TAD) of the same substance?
Its value is “failed to displace”.

What about the “K D” value ([4]; listed as full‐length p53TAD from T. adhaerens) of the same substance?
Its value is “no binding”.

For “Ac-SQETFSDLWNML [p53TADReptiles/Mammals ^AltAll]”, which koff ([1]; MDM2 H. sapiens) is on record?
Its koff is 0.36 ± 0.01 s⁻¹.

And the kon [1]?
Its kon is 3.8e+07 ± 2e+06 M⁻¹ s⁻¹.

For “Ac-DSQEFAELWEKN (N-terminus assumed) [p53TAD D. rerio ^14–26]”, which “K D” value ([2]; MDM2 D. rerio, KD = koff/kon, stopped-flow, 10°C, 20 mM sodium phosphate pH 7.4, 150 mM NaCl, 1 mM TCEP, propagated error) is on record?
The value was “absence of interaction; also recorded: non‐measurable affinity”.
